Test results published in the NIST ThermoML archive (doi:10.1021/je020125e).
± gives the expanded uncertainty stated by the source.

Conditions: 101.33 kPa, Liquid, Hot wire method

CCC(C)(C)CC [3,3-dimethylpentane]
Conditions | thermal conductivity [W/m/K] | thermal diffusivity [m2/s]
256.11 K | 0.1116 ± 0.00091 | –
256.71 K | 0.1112 ± 0.00091 | –
256.82 K | – | 7.8e-08 ± 1.5e-09
257.04 K | 0.1113 ± 0.00091 | –
257.62 K | – | 7.76e-08 ± 1.5e-09
258.25 K | – | 7.71e-08 ± 1.5e-09
276.17 K | 0.106 ± 0.00087 | –
276.5 K | 0.1058 ± 0.00087 | –
276.78 K | 0.1057 ± 0.00087 | –
276.87 K | – | 7.25e-08 ± 1.4e-09
277.64 K | – | 7.2e-08 ± 1.4e-09
278.3 K | – | 7.18e-08 ± 1.4e-09
296.01 K | 0.1005 ± 0.00083 | –
296.03 K | 0.1006 ± 0.00083 | –
296.39 K | 0.1004 ± 0.00083 | –
296.63 K | 0.1002 ± 0.00083 | –
296.64 K | – | 6.59e-08 ± 1.3e-09
296.69 K | – | 6.66e-08 ± 1.3e-09
297.52 K | – | 6.68e-08 ± 1.3e-09
298.08 K | – | 6.59e-08 ± 1.3e-09
316.38 K | 0.09528 ± 0.0008 | –
316.67 K | 0.09499 ± 0.00079 | –
316.93 K | 0.09481 ± 0.00079 | –
317.05 K | – | 6.22e-08 ± 1.2e-09
317.7 K | – | 6.09e-08 ± 1.2e-09
318.3 K | – | 6.05e-08 ± 1.2e-09
333.75 K | 0.09074 ± 0.00076 | –
334.1 K | 0.09063 ± 0.00076 | –
334.37 K | 0.09047 ± 0.00076 | 5.74e-08 ± 1.1e-09
335.16 K | – | 5.76e-08 ± 1.1e-09
335.77 K | – | 5.74e-08 ± 1.1e-09

CCC(CC)CC [3-ethylpentane]
Conditions | thermal conductivity [W/m/K] | thermal diffusivity [m2/s]
257.28 K | 0.1253 ± 0.0023 | –
257.54 K | 0.1252 ± 0.0023 | –
257.83 K | 0.1251 ± 0.0023 | –
258.36 K | – | 8.28e-08 ± 2.1e-09
259.11 K | – | 8.26e-08 ± 2.1e-09
259.89 K | – | 8.25e-08 ± 2.1e-09
277.62 K | 0.119 ± 0.0022 | –
277.89 K | 0.1188 ± 0.0022 | –
278.19 K | 0.1187 ± 0.0022 | –
278.75 K | – | 7.78e-08 ± 2e-09
279.49 K | – | 7.73e-08 ± 2e-09
280.3 K | – | 7.72e-08 ± 2e-09
296.33 K | 0.1132 ± 0.0021 | –
296.62 K | 0.113 ± 0.0021 | –
296.78 K | 0.113 ± 0.0021 | –
297.48 K | – | 7.29e-08 ± 1.9e-09
298.26 K | – | 7.28e-08 ± 1.9e-09
298.69 K | – | 7.28e-08 ± 1.9e-09
313.96 K | 0.1081 ± 0.002 | –
314.27 K | 0.1079 ± 0.002 | –
314.58 K | 0.1078 ± 0.002 | –
315.16 K | – | 6.95e-08 ± 1.8e-09
315.99 K | – | 6.93e-08 ± 1.8e-09
316.82 K | – | 6.9e-08 ± 1.8e-09
331.22 K | 0.1032 ± 0.0019 | –
331.29 K | 0.1029 ± 0.0019 | –
331.56 K | 0.1031 ± 0.0019 | –
332.45 K | – | 6.59e-08 ± 1.7e-09
333.34 K | – | 6.59e-08 ± 1.7e-09
334.2 K | – | 6.55e-08 ± 1.7e-09

CCCCC(C)CC (configuration not stated) [3-methylheptane]
Conditions | thermal conductivity [W/m/K] | thermal diffusivity [m2/s]
259.08 K | 0.1255 ± 0.0018 | –
259.32 K | 0.1253 ± 0.0018 | –
259.58 K | 0.1252 ± 0.0018 | –
260.01 K | – | 8.29e-08 ± 1.9e-09
260.65 K | – | 8.28e-08 ± 1.9e-09
261.32 K | – | 8.27e-08 ± 1.9e-09
277.99 K | 0.1204 ± 0.0017 | –
278.23 K | 0.1203 ± 0.0017 | –
278.37 K | 0.1202 ± 0.0017 | –
278.95 K | – | 7.83e-08 ± 1.7e-09
279.57 K | – | 7.83e-08 ± 1.7e-09
279.93 K | – | 7.84e-08 ± 1.8e-09
297.36 K | 0.115 ± 0.0016 | –
297.63 K | 0.115 ± 0.0016 | –
297.91 K | 0.115 ± 0.0016 | –
298.32 K | – | 7.41e-08 ± 1.7e-09
299.02 K | – | 7.44e-08 ± 1.7e-09
299.76 K | – | 7.47e-08 ± 1.7e-09
315.56 K | 0.1101 ± 0.0015 | –
315.84 K | 0.1101 ± 0.0015 | –
316.12 K | 0.1099 ± 0.0015 | –
316.52 K | – | 6.98e-08 ± 1.6e-09
317.22 K | – | 7e-08 ± 1.6e-09
317.93 K | – | 6.98e-08 ± 1.6e-09
331.93 K | 0.1058 ± 0.0015 | –
332.21 K | 0.1057 ± 0.0015 | –
332.51 K | 0.1056 ± 0.0015 | –
332.93 K | – | 6.7e-08 ± 1.5e-09
333.64 K | – | 6.7e-08 ± 1.5e-09
334.38 K | – | 6.69e-08 ± 1.5e-09
